Laboratory results: patent US20120115895A1, “TRICYCLIC INDOLE-DERIVED SPIRO DERIVATIVES AS CRTH2 MODULATORS” (Merck Serono S.A., priority 2009, published 2012)

Legend:
CRTH2 [1] = target: T1, CRTH2 (Homo sapiens, UniProt Q9Y5Y4); experiment: Radioligand binding Scintillation Proximity Assay ([3H]PGD2, hCRTH2-CHO cell membranes); set-up: host or cells: CHO cells
T1 sequence (Q9Y5Y4 1-395): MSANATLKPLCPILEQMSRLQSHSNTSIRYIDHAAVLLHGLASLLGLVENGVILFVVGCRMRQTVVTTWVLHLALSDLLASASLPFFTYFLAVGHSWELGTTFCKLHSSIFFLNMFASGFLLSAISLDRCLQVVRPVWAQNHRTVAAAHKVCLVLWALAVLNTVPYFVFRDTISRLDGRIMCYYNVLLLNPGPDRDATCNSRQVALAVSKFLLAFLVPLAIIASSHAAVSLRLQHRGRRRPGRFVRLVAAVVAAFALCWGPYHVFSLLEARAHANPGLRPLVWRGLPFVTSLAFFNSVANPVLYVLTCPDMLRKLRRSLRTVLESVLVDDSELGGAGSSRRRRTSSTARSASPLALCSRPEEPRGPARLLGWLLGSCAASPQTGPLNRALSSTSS
Procedure: Adherent CHO cells expressing hCRTH2 (Euroscreen, Belgium) were cultured in 225 cm2 cell culture flasks (Corning, USA) in 30 ml of medium. After two rinses of phosphate buffered saline (PBS), cells were harvested in 10 ml of PBS containing 1 mM EDTA, centrifuged at 500×g for 5 min at 4° C. and frozen at −80° C. The pellet was re-suspended in 50 mM Tris-HCl, pH 7.4, 2 mM EDTA, 250 mM Sucrose, containing protease inhibitor cocktail tablets, (Complete EDTA-free, Roche, Germany) and incubated 30 min at 4° C. Cells were disrupted by nitrogen cavitation (Parr Instruments, USA) at 4° C. (800 p.s.i. for 30 min), and centrifuged at 500×g for 10 min at 4° C. Pellet containing nuclei and cellular debris was discarded and supernatant was centrifuged 60 min at 4° C. at 45000×g. Membrane pellet was re-suspended in storage buffer (10 mM HEPES/KOH pH 7.4, 1 mM EDTA, 250 mM sucrose, protease inhibitor cocktail tablets) using Dounce homogenization and frozen in liquid nitrogen, and stored at −80° C.
The inhibitory activity can be investigated by a radioligand binding Scintillation Proximity Assay (SPA) (Sawyer et al., Br. J. Pharmocol 2002, 137, 1163-72). The SPA radioligand binding assay was performed at room temperature in binding buffer (10 mM HEPES/KOH pH 7.4, 10 mM MnC12, with protease inhibitor cocktail tablets), containing 1.5 nM [3H]PGD2 (Perkin Elmer), 10-50 μg/ml of hCRTH2—CHO cell membrane protein and 2 mg/ml of Wheat-germ agglutinin Scintillation Proximity Assay beads (RPNQ0001, GE-Healthcare) in a final volume of 100 μl in 96 well plates (Corning, USA). Non-specific binding was determined in the presence of 10 μM PGD2 (Cayman, USA). Competing Compounds of Formula (I) were diluted in dimethylsulphoxide so that the total volume of dimethylsulfoxide was kept constant at 1% dimethylsulphoxide (Me2SO). Serial dilutions of 100 μM to 100 pM were prepared and 10 μl each of the compounds of Formula (I) stock solutions were added to the binding assay reagents and incubated for 90 min with agitation at room temperature. Binding activity was determined by using a 1450 Micro-beta scintillation counter (Wallac, UK).

[2] = In vivo pharmacokinetic evaluation in mouse; set-up: species or system C57BL/6 female mice; conditions: mice
Procedure: (§1) In order to study the pharmacokinetic (PK) profile of test compounds in vivo, Sprague Dawley male rats or C57BL/6 female mice were dosed intravenously or after oral gavage. For both species, test compounds were dosed in solution at 1 mg/kg for i.v. route (10% ethanol, 10% N,N-dimethylacetamide, 30% propylene glycol, 50% water, v/v) and in suspension at 5 mg/kg (0.5% carboxymethylcellulose suspension, containing 0.25% Tween 20 in water) for oral gavage. PK profile in rat was obtained from 3 animals per dosing route and mouse PK profile was determined from 3 animals for each time points. The volume of administration was 2 mL/kg for i.v. dosing in both species and either 5 mL/kg (rat) or 10 mL/kg (mouse) for oral gavage. Blood samples (100 µL/time point) were collected at 0.083 (5 min), 0.25, 0.5, 1, 4, 7 and 24 hours post-dose for i.v. dosing, and at 0.5, 1, 4, 7 and 24 h for oral dosing, into heparin-Li+ containing tubes. For rats, all blood samples were collected trough a catheter in the carotid artery (placed in the artery the day before the experiment), under light isoflurane anesthesia, and stored on ice until centrifugation and plasma isolation. For mouse, blood samples were collected from intracardiac puncture at sacrifice at each time point and processed as described above for the rat. Plasma samples were stored frozen until analysis (−20° C. to −70° C.). For bioanalysis, samples were processed by protein precipitation (acetonitrile, formic acid 0.1%, addition of 3 volumes) after addition of one internal standard and analysed using a sensitive and selective LC/MS/MS method. An aliquot of the resulting supernatant was subject to LC/MS/MS analysis using a reverse phase column (Waters Xterra, C8, (3.5 μm particle size, 2.1×50 mm) and a short gradient (1 min) from (Solvent A) 85% water, 15% acetonitrile and 0.1% formic acid to (Solvent B) 90% acetonitrile, 10% water and 0.1% formic acid followed by isocratic conditions of Solvent B for 3.5 min at 0.4 mL/min. Column effluent was monitored using a Sciex API 4000 triple quadrupole mass spectrometer with a Turbo V electrospray ion source. Unknown concentrations of test compounds were determined using a calibration curve ranging from 1 to 3000 ng/mL.

[3] = In vivo pharmacokinetic evaluation in rat; set-up: species or system Sprague Dawley male rats; conditions: rats
Procedure: as §1

CRTH2 [4] = target: T1, CRTH2; experiment: PGD2-induced eosinophil cell shape assay in human whole blood; assay type: cell-based; set-up: endogenous in cells; host or cells: eosinophils in human whole blood from healthy volunteers; conditions: 10 nM PGD2
Procedure: The test compounds were diluted in dimethylsulphoxide so that the total volume of dimethylsulfoxide was kept constant at 2% dimethylsulphoxide (Me2SO). Serial dilutions of 200 μM to 0.09 μM were prepared. Samples of 90 μl of human blood from healthy volunteers (Centre de Transfusion Sanguine de Genève) were pre-incubated in polypropylene Falcon tubes (BD 352063) for 20 minutes in a water bath at 37° C. with 10 μl of diluted compounds. For CRTH2 activation, 100 μl PGD2 (Cayman 12010) at 20 nM was added (10 nM final) to each tube and cells were maintained at 37° C. For negative control cells were treated with PBS. After 10 minutes, cell activation was stopped with 120 μl Formaldehyde 10% (4% final, Fluka 41650) and cells were rested for 10 minutes at room temperature. Fixed cells were transferred into polypropylene tubes and then treated for 1 hour in a water bath at 37° C. with 2 ml of Triton—Surfact-Amps X-100 (Pierce 28314) at 0.166% (0.13% Triton final). After several washes with PBS (red cells lysed progressively during washes, two washes are necessary), cells were analyzed by flow cytometry on a FACSCalibur.

[5] = 1.5 nM [3H]PGD2, hCRTH2-CHO membranes, SPA, read-out: IC50 binding
[6] = oral bioavailability, 5 mg/kg po, 1 mg/kg i.v.

Compound | IC50 (CRTH2 [1]; [5]) [nM] | further results
CN1C(=O)N(Cc2cc(F)ccc2F)C(=O)C12C(=O)N(CC(=O)O)c1ccc(Cl)cc12 (stereo not drawn) [Example 10, [5′-chloro-1-(2,5-difluorobenzyl)-3-methyl-2,2′,5-trioxospiro[imidazolidine-4,3′-indol]-1′(2′H)-yl]acetic acid] | 498 | 
Cc1onc(-c2ccccc2)c1CN1C(=O)N(C)C2(C1=O)C(=O)N(CC(=O)O)c1ccc(Cl)cc12 (stereo not drawn) [Example 7, [5′-chloro-3-methyl-1-[(5-methyl-3-phenylisoxazol-4-yl)methyl]-2,2′,5-trioxospiro[imidazolidine-4,3′-indol]-1′(2′H)-yl]acetic acid] | 148 | 
CCCN1C(=O)N(Cc2cc(Cl)ccc2F)C(=O)C12C(=O)N(CC(=O)O)c1ccc(Cl)cc12 (single isomer, unassigned) [Example 4] | 144 | 
CN1C(=O)N(CCc2ccccc2Cl)C(=O)C12C(=O)N(CC(=O)O)c1ccc(Cl)cc12 (stereo not drawn) [Example 12, [5′-chloro-1-[2-(2-chlorophenyl)ethyl]-3-methyl-2,2′,5-trioxospiro[imidazolidine-4,3′-indol]-1′(2′H)-yl]acetic acid] | 740 | 
CN1C(=O)N(CCc2cccc(Cl)c2)C(=O)C12C(=O)N(CC(=O)O)c1ccc(Cl)cc12 (stereo not drawn) [Example 15, [15′-chloro-1-[2-(3-chlorophenyl)ethyl]-3-methyl-2,2′,5-trioxospiro[imidazolidine-4,3′-indol]-1′(2′H)-yl]acetic acid] | 551 | 
CN1C(=O)N(Cc2csc(-c3ccccc3)n2)C(=O)C12C(=O)N(CC(=O)O)c1ccc(Cl)cc12 (stereo not drawn) [Example 8, [5′-chloro-3-methyl-2,2′,5-trioxo-1-[(2-phenyl-1,3-thiazol-4-yl)methyl] Spiro[imidazolidine-4,3′-indol]-1′(2′H)-yl]acetic acid] | 44 | 
CN1C(=O)N(CCc2cccc(F)c2)C(=O)C12C(=O)N(CC(=O)O)c1ccc(Cl)cc12 (stereo not drawn) [Example 13, [15′-chloro-1-[2-(3-fluorophenyl)ethyl]-3-methyl-2,2′,5-trioxospiro[imidazolidine-4,3′-indol]-1′(2′H)-yl]acetic acid] | 916 | 
CN1C(=O)N(Cc2cc(Cl)ccc2F)C(=O)C12C(=O)N(CC(=O)O)c1ccc(Cl)cc12 (stereo not drawn) [Example 1, [5′-chloro-1-(5-chloro-2-fluorobenzyl)-3-methyl-2,2′,5-trioxospiro[imidazolidine-4,3′-indol]-1′(2′H)-yl]acetic acid] | 62 | 
CN1C(=O)N(Cc2nc3ccccc3s2)C(=O)C12C(=O)N(CC(=O)O)c1ccc(Cl)cc12 (stereo not drawn) [Example 11, [1-(1,3-benzothiazol-2-ylmethyl)-5′-chloro-3-methyl-2,2′,5-trioxospiro[imidazolidine-4,3′-indol]-1′(2′H)-yl]acetic acid] | 945 | 
CCN1C(=O)N(Cc2cc(Cl)ccc2F)C(=O)C12C(=O)N(CC(=O)O)c1ccc(Cl)cc12 (single isomer, unassigned; (+)) [Example 3, [(+)-5′-chloro-1-(5-chloro-2-fluorobenzyl)-3-ethyl-2,2′,5-trioxospiro[imidazolidine-4,3′-indol]-1′(2′H)-yl]acetic acid] | 336 | 
CN1C(=O)N(Cc2cn(-c3ccccc3)nc2-c2ccccc2)C(=O)C12C(=O)N(CC(=O)O)c1ccc(Cl)cc12 (stereo not drawn) [Example 6, [5′-chloro-1-[(1,3-diphenyl-1H-pyrazol-4-yl)methyl]-3-methyl-2,2′,5-trioxospiro[imidazolidine-4,3′-indol]1′(2′H)-yl]acetic acid] | 123 | 
O=C(O)CN1C(=O)C2(NC(=O)N(Cc3cc(Cl)ccc3F)C2=O)c2cc(Cl)ccc21 (single isomer, unassigned; (+)) [(+)-Enantiomer, (+)-[5′-Chloro-1-(5-chloro-2-fluorobenzyl)-2,2′,5-trioxospiro[imidazolidine-4,3′-indol]-1′(2′H)-yl]acetic acid, reference compound] |  | Cmax ([2]; female, C57BL/6, mouse, plasma, po, 5 mg/Kg): 113 ng/mL; Fz in mice [2, 6]: 6%; Cmax ([3]; male, Sprague Dawley, rat, plasma, po, 5 mg/Kg): 151 ng/mL; Fz in rats [3, 6]: 5.3%; IC50 (CRTH2 [1]; comparison table with (+)-Enantiomer, read-out: Binding IC50): 21 nM; activity on DP2 (CRTH2 [1]; first eluting enantiomer compared with second eluting enantiomer): better activity; IC50 (CRTH2 [4]): 50 nM
COc1c(C)cnc(CN2C(=O)N(C)C3(C2=O)C(=O)N(CC(=O)O)c2ccc(Cl)cc23)c1C (stereo not drawn) [Example 9, [5′-chloro-1-[(4-methoxy-3,5-dimethylpyridin-2-yl)methyl]-3-methyl-2,2′,5-trioxospiro[imidazolidine-4,3′-indol]-1′(2′H)-yl]acetic acid] | 363 | 
CN1C(=O)N(CCc2ccccc2F)C(=O)C12C(=O)N(CC(=O)O)c1ccc(Cl)cc12 (stereo not drawn) [Example 14, [15′-chloro-1-[2-(2-fluorophenyl)ethyl]-3-methyl-2,2′,5-trioxospiro[imidazolidine-4,3′-indol]-1′(2′H)-yl]acetic acid] | 940 | 
CC(C)c1nc(CN2C(=O)N(C)C3(C2=O)C(=O)N(CC(=O)O)c2ccc(Cl)cc23)cs1 (stereo not drawn) [Example 5, [5′-chloro-1-[(2-isopropyl-1,3-thiazol-4-yl)methyl]-3-methyl-2,2′,5-trioxospiro[imidazolidine-4,3′-indol]-1′(2′H)-yl]acetic acid] | 628 | 
